US6333338A, “Bispiperidines as antithrombotic agents” (Laboratoire L. Lafon, priority 1998, dated 2001)
Where a name gives a salt, the structure may show the parent alone. Read-outs that look alike come from different tables or passages of the source.

Columns and labels:
guinea pig platelets [1] = experiment: Ex vivo/vitro inhibition of platelet aggregation after administration via the gastric route in guinea pigs; set-up: species or system guinea pig (Dunkin-Hartley); conditions: Cavia porcellus, Platelet, fasted guinea pigs
In short: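 Freshly separated platelets from Dunkin-Hartley guinea pigs given test compounds by the gastric route (random allocation) were tested ex vivo under the in vitro assay conditions. Aggregation inhibition at each concentration gave an IC50 plus kinetics and duration of effect.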

human platelets = experiment: In vitro inhibition of collagen-induced platelet aggregation, human platelets (PRP); assay type: cell-based; conditions: 0.05 h, collagen 5 μg/ml, 3 minutes of contact at 37° C., read-out: IC50 (M) in vitro, Man
Procedure: A study of the inhibitory activity of the compounds of formula I on platelet aggregation was carried out in vitro, i.e. by direct contact of solutions of variable concentrations of the compounds with platelets freshly separated from a sample of total blood, taken under standardized conditions, from laboratory animals (guinea pigs) and from healthy human subjects who have not received any substances or drugs that might interfere with blood clotting. The anti-platelet-aggregating activity was also studied ex vivo/vitro, i.e. after administration of the substances claimed to guinea pigs to measure the intensity and duration of the anti-aggregating action induced by the fraction of the test product absorbed and circulating in the blood.
Venous blood is taken from a group of ten healthy human subjects of the same age, by puncture into a vein of the fold of the elbow and is collected in a glass tube containing aqueous 0.129 M sodium citrate solution (1 volume of citrate solution per 9 volumes of blood). Each tube is then centrifuged a first time at 20° C. and 100 g for 15 minutes in order to obtain the platelet-rich plasma (PRP); after removing this PRP, the tube is again centrifuged at 2000 g for 15 minutes in order this time to remove the platelet-poor plasma (PPP).
For each identified sample of PRP, the platelets are counted using a Coulter ZM counter. Each sample is then used to study the variation in inhibition of the platelet aggregation triggered by the addition of a Chromo-par Reagent collagen glucose solution from Coultronics (used at a concentration of 5 μg/ml) as a function of the addition of increasing concentrations of each compound in a range covering the interval 10^-8 M→10^-5 M, (example of concentrations: 10^-8 M, […], 6×10^-6 M, 4×10^-6 M, 2×10^-6 M, 10^-6 M, […], 10^-5 M). Beforehand, for each compound, an aqueous 10^-3 M solution is prepared. A control test intended to check the possible effect of the solvents (reference value) on the platelet aggregation is introduced into each measurement series, and is measured after 3 minutes of contact at 37° C. with agitation.
From the percentages of inhibition of the platelet aggregation measured for each concentration of each compound, the 50% inhibitory concentration (IC50) is calculated.

guinea pig platelets [2] = experiment: In vitro inhibition of collagen-induced platelet aggregation, guinea pig platelets (PRP); assay type: cell-based, guinea pig (male Dunkin-Hartley); conditions: Cavia porcellus, Platelet, 0.05 h, collagen 1 μg/ml, 3 minutes of contact at 37° C.
In short: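 Citrated PRP from male Dunkin-Hartley guinea pigs, adjusted to 200,000–400,000 platelets/mm^3, with PPP as reference. Aggregation induced by collagen (1 μg/ml) and followed by optical aggregometry; inhibition measured after 3 min compound contact at 37° C with stirring.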

[3] = 1 h before blood sampling, read-out: % of g.r. inhibition guinea pig ex vivo, d = 150 mg/kg, 1 h
[4] = 2 h before blood sampling, read-out: % of g.r. inhibition guinea pig ex vivo, d = 150 mg/kg, 2 h
[5] = 1 h before blood sampling, read-out: % of g.r. inhibition guinea pig ex vivo, d = 10 mg/kg, 1 h
[6] = 2 h before blood sampling, read-out: % of g.r. inhibition guinea pig ex vivo, d = 10 mg/kg, 2 h

Row | SMILES | inhibition at 150 mg/kg (guinea pig platelets [1]; [3]) [%] | inhibition at 150 mg/kg (guinea pig platelets [1]; [4]) [%] | IC50 (human platelets) [M] | IC50 (guinea pig platelets [2]) [nM] | inhibition at 10 mg/kg (guinea pig platelets [1]; [5]) [%] | inhibition at 10 mg/kg (guinea pig platelets [1]; [6]) [%]
1 | O=C(O)C[C@H](NC(=O)CNC(=O)C(CCC1CCNCC1)CCC1CCNCC1)C(=O)N1CCC(Cc2ccccc2)CC1 [Example 29, (3S)-4-oxo-4-(4-Benzylpiperidino)-3-{[2-({4-(4-piperidyl)-2-[2-(4-piperidyl)ethyl]butanoyl}amino)acetyl]amino}-butanoic Acid Dihydrochloride] | -35 | -23 | 1e-05 | 13000 | – | –
2 | CCCc1ccc(S(=O)(=O)NC(CNC(=O)CNC(=O)C(CCC2CCNCC2)CCC2CCNCC2)C(=O)O)cc1 (stereo not shown) [Example 28, 2-{[(4-Propylphenyl)sulphonyl]amino}-3-{[2-({4-(4-piperidyl)-2-[2-(4-piperidyl)ethyl]butanoyl}amino)acetyl]amino}propanoic Acid Dihydrochloride] | -73 | -75 | 1.1e-06 | 1500 | -18 | –
3 | O=C(CNC(=O)C(CCC1CCNCC1)CCC1CCNCC1)NCC(NS(=O)(=O)c1ccc(F)cc1)C(=O)O (stereo not shown) [Example 35, 2-{[(4-Fluorophenyl)sulphonyl]amino}-3-{[2-({4-(4-piperidyl)-2-[2-(4-piperidyl)ethyl]butanoyl}amino)acetyl]amino}propanoic Acid Dihydrochloride] | – | – | 1.3e-08 | 18 | -5 | 0
4 | Cc1cc(C)c(S(=O)(=O)NC(CNC(=O)CNC(=O)C(CCC2CCNCC2)CCC2CCNCC2)C(=O)O)c(C)c1 (stereo not shown) [Example 37, 2-[(Mesitylsulphonyl)amino]-3-{[2-({4-(4-piperidyl)-2-[2-(4-piperidyl)ethyl]butanoyl}amino)acetyl]amino}propanoic Acid Dihydrochloride] | – | – | 1.3e-07 | 140 | -9 | -16
5 | O=C(O)CC(NC(=O)CNC(=O)C(CCC1CCNCC1)CCC1CCNCC1)c1cccnc1 (stereo not shown) [Example 12, 3-(3-Pyridyl)-3-{[2-({4-(4-piperidyl)-2-[2-(4-piperidyl)ethyl]butanoyl}amino)acetyl]amino}propanoic Acid Trihydrochloride] | -74 | -68 | 1.5e-06 | 980 | – | –
6 | O=C(CNC(=O)C(CCC1CCNCC1)CCC1CCNCC1)NC[C@H](NS(=O)(=O)c1cc2ccccc2s1)C(=O)O [Example 59, 2-[(1-Benzothiophen-2-ylsulphonyl)amino]-3-{[2-({4-(4-piperidyl)-2-[2-(4-piperidyl)ethyl]butanoyl}amino)acetyl]amino}propanoic Acid Dihydrochloride] | – | – | 1.5e-07 | 66 | -66 | -34
7 | O=C(O)C[C@H](NC(=O)CNC(=O)C(CCC1CCNCC1)CCC1CCNCC1)C(=O)NC12CC3CC(CC(C3)C1)C2 [Example 16, (3S)-4-(1-Adamantylamino)-4-oxo-3-{[2-({4-(4-piperidyl)-2-[2-(4-piperidyl)ethyl]butanoyl}amino)acetyl]amino}butanoic Acid Dihydrochloride] | -54 | -47 | 8.5e-07 | 3500 | -5 | –
8 | O=C(CNC(=O)C(CCC1CCNCC1)CCC1CCNCC1)NCC(NS(=O)(=O)c1ccc(-c2ccccc2)cc1)C(=O)O (stereo not shown) [Example 30, 2-[([1,1-Biphenyl]-4-ylsulphonyl)amino]-3-{[2-({4-(4-piperidyl)-2-[2-(4-piperidyl)ethyl]butanoyl}amino)acetyl]amino}propanoic Acid Dihydrochloride] | – | -72 | 1.4e-07 | 120 | -67 | –
9 | O=C(O)CC(CCc1ccccc1)NC(=O)CNC(=O)C(CCC1CCNCC1)CCC1CCNCC1 (stereo not shown) [Example 15, 5-Phenyl-3-{[2-({4-(4-piperidyl)-2-[2-(4-piperidyl)ethyl]butanoyl}amino)acetyl]amino}pentanoic Acid Dihydrochloride] | -84 | -26 | 1.5e-07 | 4300 | – | –
10 | COc1ccc(S(=O)(=O)N[C@@H](CNC(=O)CNC(=O)C(CCC2CCNCC2)CCC2CCNCC2)C(=O)O)c2ccccc12 [Example 52, 2-([(4-Methoxy-1-naphthyl)sulphonyl]amino)-3-{[2-({4-(4-piperidyl)-2-[2-(4-piperidyl)ethyl]butanoyl}amino)acetyl]amino}propanoic Acid Dihydrochloride] | – | – | 9.3e-08 | 35 | -58 | -30
11 | COc1ccc2cc(S(=O)(=O)N[C@@H](CNC(=O)CNC(=O)C(CCC3CCNCC3)CCC3CCNCC3)C(=O)O)ccc2c1 [Example 36, (2S)-2-{[(6-Methoxy-2-naphthyl)sulphonyl]amino}-3-{[2-({4-(4-piperidyl)-2-[2-(4-piperidyl)ethyl]butanoyl}amino)acetyl]amino}propanoic Acid Dihydrochloride] | – | – | 7.2e-08 | 41 | -63 | -69
